In data set [1] the target is T1, Mas-related G-protein coupled receptor member X2 (Homo sapiens) (UniProt Q96LB1).
T1 sequence (whole entry): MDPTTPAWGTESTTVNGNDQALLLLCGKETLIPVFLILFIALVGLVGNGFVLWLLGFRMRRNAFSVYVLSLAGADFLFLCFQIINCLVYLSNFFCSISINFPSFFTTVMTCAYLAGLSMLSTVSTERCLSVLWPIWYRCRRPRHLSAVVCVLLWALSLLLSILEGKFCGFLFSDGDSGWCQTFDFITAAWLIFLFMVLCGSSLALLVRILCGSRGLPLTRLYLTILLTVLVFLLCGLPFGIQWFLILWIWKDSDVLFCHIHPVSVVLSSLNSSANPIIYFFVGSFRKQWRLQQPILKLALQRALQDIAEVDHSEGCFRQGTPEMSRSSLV
Nature of the data set: Competitive binding affinity to MrgX2 (unknown origin) assessed as retention time of compound at 2 x 10^-8mol/L by zonal elution method (reference value: 58.73 min). Particulars: dose 2.0 10^-8mol/L.

In data set [2] the target is T1, Mas-related G-protein coupled receptor member X2 (Homo sapiens). Put plainly: Competitive binding affinity to MrgX2 (unknown origin) assessed as retention time of compound at 4 x 10^-8mol/L by zonal elution method (reference value: 58.73 min). The conditions noted are these: dose 4.0 10^-8mol/L.
Data set [3] shares this target. Put plainly: Competitive binding affinity to MrgX2 (unknown origin) assessed as retention time of compound at 8 x 10^-8mol/L by zonal elution method (reference value: 58.73 min). Particulars: dose 8.0 10^-8mol/L.
Data set [4] shares this target. Nature of the data set: Competitive binding affinity to MrgX2 (unknown origin) assessed as retention time of compound at 1 x 10^-7mol/L by zonal elution method (reference value: 58.73 min). The conditions noted are these: dose 1.0 10^-7mol/L.
Data set [5] deals with LAD2. Nature of the data set: Anti-pseudoallergic activity in human LAD2 cells assessed as inhibition of SP-induced beta-aminohexosidase release at 50 uM preincubated for 30 mins followed by SP addition and measured after 30 mins by absorbance based microplate reader analysis relative to control. Type of data set: functional. Particulars: LAD2, 1 h, time 60 min.
Data set [6] relates to LAD2. Nature of the data set: Anti-pseudoallergic activity in human LAD2 cells assessed as inhibition of SP-induced TNF-alpha release incubated for 6 hrs by ELISA analysis. Type of data set: functional, cell-based. The conditions noted are these: dose 1-10 µM. In general terms: An ELISA detects its analyte on a solid surface through an enzyme-linked reagent.
For data set [7], the system named is Mus musculus. Put plainly: Anti-pseudoallergic activity in C48/80-induced male C57BL/6 mouse model assessed as reduction in serum histamine release at 1 to 10 mg/kg, preadministered with compound via gavage for 2 hrs followed by C48/80 administration and measured after 1 hrs by UHPLC-ESI-MS/MS analysis. The format is functional, organism-based. Particulars: dose 1-10 mg/kg, time 3.0 hrs.

The test system of data set [8] is Mus musculus. Nature of the data set: Anti-pseudoallergic activity in C48/80-induced male C57BL/6 mouse model assessed as reduction in mast cell degranulation at 1 mg/mL administered via gavage for 2 hrs by Toluidine blue staining based analysis. The format is functional, organism-based.
Data set [9] in a line: Cytotoxicity against human LAD2 cells assessed as cell viability incubated for 24 hrs by CCK8 assay relative to control. Type of data set: toxicity, cell-based. Particulars: read-out: Activity. For orientation: Tetrazolium assays rely on reduction of a dye to a coloured formazan, in cell work by metabolically active cells.
Data set [10] has as its system Mus musculus. Put plainly: Anti-pseudoallergic activity in C48/80-induced male C57BL/6 mouse model assessed as reduction in paw thickness at 0.5 to 1.0 mg/mL administered via gavage for 2 hrs by vernier caliper based analysis. The conditions noted are these: dose 0.5-1 mg/ml. The format is functional, organism-based.
Data set [11] deals with LAD2. Put plainly: Anti-pseudoallergic activity in human LAD2 cells assessed as inhibition of SP-induced histamine release preincubated for 30 mins followed by SP addition and measured after 30 mins by UHPLC-ESI-MS/MS analysis. The format is functional, cell-based. Particulars: dose 1-10 µM, time 60.0 min.
For data set [12], the system named is Mus musculus. Nature of the data set: Anti-pseudoallergic activity in C48/80-induced male C57BL/6 mouse model assessed as reduction in evans blue extravasation at 1.0 mg/mL administered via gavage for 2 hrs by absorbance based assay. The format is functional, organism-based.
Data set [13] has as its system LAD2. Put plainly: Anti-pseudoallergic activity in human LAD2 cells assessed as inhibition of SP-induced beta-aminohexosidase release preincubated for 30 mins followed by SP addition and measured after 30 mins by absorbance based microplate reader analysis. The format is functional, cell-based.
The subject of data set [14] is LAD2. Nature of the data set: Anti-pseudoallergic activity in human LAD2 cells assessed as inhibition of C48/80-induced beta-aminohexosidase release preincubated for 30 mins followed by SP addition and measured after 30 mins by absorbance based microplate reader analysis. Type of data set: functional, cell-based.

Molecules are shown by their SMILES. pIC50: −log10 of the molar value. Active and inactive are the calls of the source. No cut-off for these calls is given here. Where only a bound is given, the exact number is not on record here.

Turning to `CN(C)[C@@H]1CCN(c2cc(-c3ccccc3)nc3ccnn23)C1`, the Retention time in data set [1] is 56.1 min; in [2] it was 46.3 min; in [3], 29.2 min; in data set [4] it was 23.7 min.

By inhibition is commonly meant how much of the control response was suppressed. One may read the pIC50 as −log10 of the IC50, conventionally taken in molar units. For `O=C(CSc1nnc(-c2ccccc2)c(-c2ccccc2)n1)Nc1ccc(Cl)cc1Cl`, the inhibition at 50 µM in the data set on LAD2 [5] is 75%. Further, the Activity entry with LAD2 [6], in the data set on LAD2 [11], in the data set on LAD2 [13] (time 60.0 min) and in the data set on LAD2 [14] (time 60.0 min) was “Dose-dependent-effect” each time. Moreover, the result with Mus musculus [7], in the data set with Mus musculus [8], in the data set with Mus musculus [10] and in the data set on Mus musculus [12] was Active. The viability at 24 h in data set [9] was greater than 85%. For the same compound, the pIC50 is 5.31 in the data set on LAD2 [13] and 5.21 in the data set with LAD2 [14].

Values taken from ChEMBL document CHEMBL6115018, “MrgX2-Targeting Ligand Screen for Antipseudoallergic Agents by Immobilized His-Tag-Fused Protein Technology” (J Med Chem, 2025).
